US12077503B2, “Substituted cyclic amides and their use as herbicides” (FMC CORPORATION, priority 2015, dated 2024)

Legend:
Assay type in all cases: in vivo
[1] = system: Galium (catchweed bedstraw, Galium aparine); assay: Test C preemergence; settings: for Plant response rating, Galium: scale 0 to 100, 0 no effect, 100 complete control
Method in brief: (§1)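 Herbicidal effect, applied preemergence to sown seeds or postemergence to 1- to 4-leaf plants, was scored visually 13 to 15 d after application, 0 to 100 versus controls.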

[2] = system: barnyardgrass (Echinochloa crus-galli); assay: Test C preemergence; settings: for Plant response rating, Barnyardgrass: scale 0 to 100, 0 no effect, 100 complete control
Method in brief: as §1

[3] = system: blackgrass (Alopecurus myosuroides); assay: Test C preemergence; settings: for Plant response rating, Blackgrass: scale 0 to 100, 0 no effect, 100 complete control
Method in brief: as §1

[4] = system: foxtail, giant (giant foxtail, Setaria faberii); assay: Test C preemergence; settings: for Plant response rating, Foxtail, Giant: scale 0 to 100, 0 no effect, 100 complete control
Method in brief: as §1

[5] = system: johnsongrass (Sorghum halepense); assay: Test C preemergence; settings: for Plant response rating, Johnsongrass: scale 0 to 100, 0 no effect, 100 complete control
Method in brief: as §1

[6] = system: oilseed rape (Brassica napus); assay: Test C preemergence; settings: for Plant response rating, Oilseed Rape: scale 0 to 100, 0 no effect, 100 complete control
Method in brief: as §1

[7] = system: ragweed (common ragweed, Ambrosia elatior); assay: Test C preemergence; settings: for Plant response rating, Ragweed: scale 0 to 100, 0 no effect, 100 complete control
Method in brief: as §1

soybean (Glycine max) [8] = assay: Test C preemergence; settings: for Plant response rating, Soybean: scale 0 to 100, 0 no effect, 100 complete control
Method in brief: as §1

[9] = system: wheat (winter wheat, Triticum aestivum); assay: Test C preemergence; settings: for Plant response rating, Wheat: scale 0 to 100, 0 no effect, 100 complete control
Method in brief: as §1

[10] = system: Galium (catchweed bedstraw, Galium aparine); assay: Test C postemergence; settings: scale 0 to 100, 0 no effect, 100 complete control
Excerpt: (§2) Seeds of plant species selected from blackgrass (Alopecurus myosuroides), ryegrass, Italian (Italian ryegrass, Lolium multiflorum), wheat (winter wheat, Triticum aestivum), Galium (catchweed bedstraw, Galium aparine), corn (Zea mays), crabgrass, large (large crabgrass, Digitaria sanguinalis), foxtail, giant (giant foxtail, Setaria faberii), johnsongrass (Sorghum halepense), lambsquarters (Chenopodium album), morningglory (Ipomoea coccinea), nutsedge, yellow (yellow nutsedge, Cyperus esculentus), pigweed (Amaranthus retroflexus), ragweed (common ragweed, Ambrosia elatior), soybean (Glycine max), barnyardgrass (Echinochloa crus-galli), oilseed rape (Brassica napus), waterhemp (common waterhemp, Amaranthus rudis) and velvetleaf (Abutilon theophrasti) were planted into a blend of loam soil and sand and treated preemergence with test chemicals formulated in a non-phytotoxic solvent mixture which included a surfactant.
(§3) At the same time, plants selected from these crop and weed species and also Kochia (Kochia scoparia), oat, wild (wild oat, Avena fatua), and chickweed (common chickweed, Stellaria media) were planted in pots containing Sunshine Redi-Earth® planting medium comprising spaghnum peat moss, vermiculite, starter nutrients and dolomitic limestone and treated with postemergence applications of test chemicals formulated in the same manner. Plants ranged in height from 2 to 18 cm (1- to 4-leaf stage) for postemergence treatments. Treated plants and controls were maintained in a greenhouse for 13 to 15 d, after which time all species were compared to controls and visually evaluated. Plant response ratings, summarized in Table C, are based on a scale of 0 to 100 where 0 is no effect and 100 is complete control. A dash (-) response means no test result.

Kochia (Kochia scoparia) = assay: Test C postemergence; settings: scale 0 to 100, 0 no effect, 100 complete control
Excerpt: as §2, §3

[11] = system: barnyardgrass (Echinochloa crus-galli); assay: Test C postemergence; settings: scale 0 to 100, 0 no effect, 100 complete control
Excerpt: as §2, §3

[12] = system: chickweed (common chickweed, Stellaria media); assay: Test C postemergence; settings: scale 0 to 100, 0 no effect, 100 complete control
Excerpt: as §2, §3

corn (Zea mays) = assay: Test C postemergence; settings: scale 0 to 100, 0 no effect, 100 complete control
Excerpt: as §2, §3

[13] = system: crabgrass, large (large crabgrass, Digitaria sanguinalis); assay: Test C postemergence; settings: scale 0 to 100, 0 no effect, 100 complete control
Excerpt: as §2, §3

[14] = system: foxtail, giant (giant foxtail, Setaria faberii); assay: Test C postemergence; settings: scale 0 to 100, 0 no effect, 100 complete control
Excerpt: as §2, §3

[15] = system: lambsquarters (Chenopodium album); assay: Test C postemergence; settings: scale 0 to 100, 0 no effect, 100 complete control
Excerpt: as §2, §3

[16] = system: morningglory (Ipomoea coccinea); assay: Test C postemergence; settings: scale 0 to 100, 0 no effect, 100 complete control
Excerpt: as §2, §3

[17] = system: oat, wild (wild oat, Avena fatua); assay: Test C postemergence; settings: scale 0 to 100, 0 no effect, 100 complete control
Excerpt: as §2, §3

[18] = system: oilseed rape (Brassica napus); assay: Test C postemergence; settings: scale 0 to 100, 0 no effect, 100 complete control
Excerpt: as §2, §3

[19] = system: ragweed (common ragweed, Ambrosia elatior); assay: Test C postemergence; settings: scale 0 to 100, 0 no effect, 100 complete control
Excerpt: as §2, §3

soybean (Glycine max) [20] = assay: Test C postemergence; settings: scale 0 to 100, 0 no effect, 100 complete control
Excerpt: as §2, §3

[21] = 31 g ai/ha, 0 is no effect, 100 is complete control

CN1C[C@H](c2ccc(F)c(F)c2)[C@@H](C(=O)Nc2cccc(F)c2F)C1=O [Compound 639, (3S,4S)—N-(2,3-difluorophenyl)-4-(3,4-difluorophenyl)-1-methyl-2-oxo-3-pyrrolidinecarboxamide]
Plant response rating (scale of 0 to 100), Galium [1, 21]: 85 | Plant response rating, Galium ([1]; 62 g ai/ha): 80 | Plant response rating, Galium ([1]; 125 g ai/ha): 85 | Plant response rating, Galium ([1]; 250 g ai/ha): 95 | Plant response rating (scale of 0 to 100), Barnyardgrass [2, 21]: 90 | Plant response rating, Barnyardgrass ([2]; 62 g ai/ha): 95 | Plant response rating, Barnyardgrass ([2]; 125 g ai/ha): 95 | Plant response rating, Barnyardgrass ([2]; 250 g ai/ha): 100 | Plant response rating (scale of 0 to 100), Blackgrass [3, 21]: 40 | Plant response rating, Blackgrass ([3]; 62 g ai/ha): 85 | Plant response rating, Blackgrass ([3]; 125 g ai/ha): 85 | Plant response rating, Blackgrass ([3]; 250 g ai/ha): 90 | Plant response rating (scale of 0 to 100), Foxtail, Giant [4, 21]: 90 | Plant response rating, Foxtail, Giant ([4]; 62 g ai/ha): 90 | Plant response rating, Foxtail, Giant ([4]; 125 g ai/ha): 95 | Plant response rating, Foxtail, Giant ([4]; 250 g ai/ha): 100 | Plant response rating (scale of 0 to 100), Johnsongrass [5, 21]: 20 | Plant response rating, Johnsongrass ([5]; 62 g ai/ha): 65 | Plant response rating, Johnsongrass ([5]; 125 g ai/ha): 80 | Plant response rating, Johnsongrass ([5]; 250 g ai/ha): 90 | Plant response rating (scale of 0 to 100), Oilseed Rape [6, 21]: 0 | Plant response rating, Oilseed Rape ([6]; 62 g ai/ha): 60 | Plant response rating, Oilseed Rape ([6]; 125 g ai/ha): 85 | Plant response rating, Oilseed Rape ([6]; 250 g ai/ha): 90 | Plant response rating (scale of 0 to 100), Ragweed [7, 21]: 5 | Plant response rating, Ragweed ([7]; 62 g ai/ha): 60 | Plant response rating, Ragweed ([7]; 125 g ai/ha): 75 | Plant response rating, Ragweed ([7]; 250 g ai/ha): 80 | Plant response rating (scale of 0 to 100), Soybean (soybean (Glycine max) [8]; [21]): 0 | Plant response rating, Soybean (soybean (Glycine max) [8]; 62 g ai/ha): 0 | Plant response rating, Soybean (soybean (Glycine max) [8]; 125 g ai/ha): 10 | Plant response rating, Soybean (soybean (Glycine max) [8]; 250 g ai/ha): 20 | Plant response rating (scale of 0 to 100), Wheat [9, 21]: 0 | Plant response rating, Wheat ([9]; 62 g ai/ha): 65 | Plant response rating, Wheat ([9]; 125 g ai/ha): 80 | Plant response rating, Wheat ([9]; 250 g ai/ha): 85 | Plant response rating, Galium ([10]; 31 g ai/ha): 50 | Plant response rating, Galium ([10]; 62 g ai/ha): 50 | Plant response rating, Galium ([10]; 125 g ai/ha): 70 | Plant response rating, Galium ([10]; 250 g ai/ha): 70 | Plant response rating, Kochia (Kochia (Kochia scoparia); 31 g ai/ha): 40 | Plant response rating, Kochia (Kochia (Kochia scoparia); 62 g ai/ha): 50 | Plant response rating, Kochia (Kochia (Kochia scoparia); 125 g ai/ha): 80 | Plant response rating, Kochia (Kochia (Kochia scoparia); 250 g ai/ha): 85 | Plant response rating, Barnyardgrass ([11]; 31 g ai/ha): 20 | Plant response rating, Barnyardgrass ([11]; 62 g ai/ha): 40 | Plant response rating, Barnyardgrass ([11]; 125 g ai/ha): 70 | Plant response rating, Barnyardgrass ([11]; 250 g ai/ha): 85 | Plant response rating, Chickweed ([12]; 31 g ai/ha): 40 | Plant response rating, Chickweed ([12]; 62 g ai/ha): 40 | Plant response rating, Chickweed ([12]; 125 g ai/ha): 50 | Plant response rating, Chickweed ([12]; 250 g ai/ha): 90 | Plant response rating, Corn (corn (Zea mays); 31 g ai/ha): 0 | Plant response rating, Corn (corn (Zea mays); 62 g ai/ha): 0 | Plant response rating, Corn (corn (Zea mays); 125 g ai/ha): 0 | Plant response rating, Corn (corn (Zea mays); 250 g ai/ha): 35 | Plant response rating, Crabgrass, Large ([13]; 31 g ai/ha): 60 | Plant response rating, Crabgrass, Large ([13]; 62 g ai/ha): 70 | Plant response rating, Crabgrass, Large ([13]; 125 g ai/ha): 70 | Plant response rating, Crabgrass, Large ([13]; 250 g ai/ha): 80 | Plant response rating, Foxtail, Giant ([14]; 31 g ai/ha): 35 | Plant response rating, Foxtail, Giant ([14]; 62 g ai/ha): 60 | Plant response rating, Foxtail, Giant ([14]; 125 g ai/ha): 80 | Plant response rating, Foxtail, Giant ([14]; 250 g ai/ha): 85 | Plant response rating, Lambsquarters ([15]; 31 g ai/ha): 40 | Plant response rating, Lambsquarters ([15]; 62 g ai/ha): 75 | Plant response rating, Lambsquarters ([15]; 125 g ai/ha): 65 | Plant response rating, Lambsquarters ([15]; 250 g ai/ha): 70 | Plant response rating, Morningglory ([16]; 31 g ai/ha): 30 | Plant response rating, Morningglory ([16]; 62 g ai/ha): 25 | Plant response rating, Morningglory ([16]; 125 g ai/ha): 60 | Plant response rating, Morningglory ([16]; 250 g ai/ha): 75 | Plant response rating, Oat, Wild ([17]; 31 g ai/ha): 0 | Plant response rating, Oat, Wild ([17]; 62 g ai/ha): 0 | Plant response rating, Oat, Wild ([17]; 125 g ai/ha): 0 | Plant response rating, Oat, Wild ([17]; 250 g ai/ha): 0 | Plant response rating, Oilseed Rape ([18]; 31 g ai/ha): 30 | Plant response rating, Oilseed Rape ([18]; 62 g ai/ha): 30 | Plant response rating, Oilseed Rape ([18]; 125 g ai/ha): 40 | Plant response rating, Oilseed Rape ([18]; 250 g ai/ha): 50 | Plant response rating, Ragweed ([19]; 31 g ai/ha): 0 | Plant response rating, Ragweed ([19]; 62 g ai/ha): 10 | Plant response rating, Ragweed ([19]; 125 g ai/ha): 50 | Plant response rating, Ragweed ([19]; 250 g ai/ha): 65 | Plant response rating, Soybean (soybean (Glycine max) [20]; 31 g ai/ha): 0 | Plant response rating, Soybean (soybean (Glycine max) [20]; 62 g ai/ha): 10 | Plant response rating, Soybean (soybean (Glycine max) [20]; 125 g ai/ha): 15 | Plant response rating, Soybean (soybean (Glycine max) [20]; 250 g ai/ha): 25
